{"source": "paper PMC3791872", "about": "(Bioscience Reports, 2013)", "key": {"SV40 large TAg": {"molecular_target": "T1, SV40 large TAg (Simian virus 40, UniProt P03070)", "T1 construct": "made in house", "T1 sequence (P03070 whole entry)": "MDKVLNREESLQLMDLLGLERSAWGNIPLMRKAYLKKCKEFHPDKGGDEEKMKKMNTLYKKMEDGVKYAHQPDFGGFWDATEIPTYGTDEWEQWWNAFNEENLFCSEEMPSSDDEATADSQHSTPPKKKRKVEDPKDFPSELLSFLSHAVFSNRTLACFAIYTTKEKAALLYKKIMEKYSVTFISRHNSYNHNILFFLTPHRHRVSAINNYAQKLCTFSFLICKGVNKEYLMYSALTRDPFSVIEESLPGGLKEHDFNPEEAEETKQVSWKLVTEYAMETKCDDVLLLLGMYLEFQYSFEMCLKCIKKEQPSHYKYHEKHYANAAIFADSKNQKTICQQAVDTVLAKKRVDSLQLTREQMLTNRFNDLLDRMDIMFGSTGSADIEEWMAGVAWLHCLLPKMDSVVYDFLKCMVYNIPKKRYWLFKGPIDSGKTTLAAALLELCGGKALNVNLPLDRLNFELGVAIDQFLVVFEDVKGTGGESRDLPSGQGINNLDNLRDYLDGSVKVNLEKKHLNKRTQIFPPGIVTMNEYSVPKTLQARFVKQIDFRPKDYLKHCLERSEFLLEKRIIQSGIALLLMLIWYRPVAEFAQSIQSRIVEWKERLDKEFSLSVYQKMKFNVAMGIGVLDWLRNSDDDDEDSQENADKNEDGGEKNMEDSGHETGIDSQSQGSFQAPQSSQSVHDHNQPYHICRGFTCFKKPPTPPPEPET", "assay": "Steady-state ATP hydrolysis by TAg", "type": "biochemical, SV40 (simian virus 40)", "conditions": "1 mM compound, 100 nM hexamer"}, "Mcm467 [1]": {"molecular_target": "T2, Mcm467 (Saccharomyces cerevisiae, UniProt P30665+P38132+P53091)", "T2 construct": "made in house; host or cells: baculovirus-infected insect cells", "T2 sequence (P30665 whole entry)": "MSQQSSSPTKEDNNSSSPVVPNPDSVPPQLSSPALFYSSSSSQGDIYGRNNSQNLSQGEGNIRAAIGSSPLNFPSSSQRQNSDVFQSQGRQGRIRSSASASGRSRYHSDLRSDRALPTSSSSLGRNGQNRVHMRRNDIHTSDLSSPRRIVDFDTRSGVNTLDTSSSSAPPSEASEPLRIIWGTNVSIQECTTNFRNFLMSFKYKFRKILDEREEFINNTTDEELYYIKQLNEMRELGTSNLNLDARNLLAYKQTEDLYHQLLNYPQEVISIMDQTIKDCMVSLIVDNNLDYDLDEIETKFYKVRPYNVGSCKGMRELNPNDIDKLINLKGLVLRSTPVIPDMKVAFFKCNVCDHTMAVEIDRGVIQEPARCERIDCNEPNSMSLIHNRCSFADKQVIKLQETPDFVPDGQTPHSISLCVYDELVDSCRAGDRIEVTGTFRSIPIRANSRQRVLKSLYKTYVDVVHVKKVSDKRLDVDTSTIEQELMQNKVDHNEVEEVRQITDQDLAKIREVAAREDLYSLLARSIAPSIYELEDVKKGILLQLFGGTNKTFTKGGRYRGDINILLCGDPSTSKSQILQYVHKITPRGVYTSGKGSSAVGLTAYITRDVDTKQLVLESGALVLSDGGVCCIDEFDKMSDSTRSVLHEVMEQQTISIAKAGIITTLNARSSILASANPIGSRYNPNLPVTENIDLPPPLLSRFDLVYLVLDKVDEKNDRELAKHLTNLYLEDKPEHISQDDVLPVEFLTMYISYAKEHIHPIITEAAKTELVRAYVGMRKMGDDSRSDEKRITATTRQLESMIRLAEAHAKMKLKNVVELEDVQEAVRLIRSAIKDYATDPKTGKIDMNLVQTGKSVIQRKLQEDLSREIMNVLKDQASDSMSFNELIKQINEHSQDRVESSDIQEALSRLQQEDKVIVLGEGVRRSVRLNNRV", "T2 sequence (P53091 whole entry)": "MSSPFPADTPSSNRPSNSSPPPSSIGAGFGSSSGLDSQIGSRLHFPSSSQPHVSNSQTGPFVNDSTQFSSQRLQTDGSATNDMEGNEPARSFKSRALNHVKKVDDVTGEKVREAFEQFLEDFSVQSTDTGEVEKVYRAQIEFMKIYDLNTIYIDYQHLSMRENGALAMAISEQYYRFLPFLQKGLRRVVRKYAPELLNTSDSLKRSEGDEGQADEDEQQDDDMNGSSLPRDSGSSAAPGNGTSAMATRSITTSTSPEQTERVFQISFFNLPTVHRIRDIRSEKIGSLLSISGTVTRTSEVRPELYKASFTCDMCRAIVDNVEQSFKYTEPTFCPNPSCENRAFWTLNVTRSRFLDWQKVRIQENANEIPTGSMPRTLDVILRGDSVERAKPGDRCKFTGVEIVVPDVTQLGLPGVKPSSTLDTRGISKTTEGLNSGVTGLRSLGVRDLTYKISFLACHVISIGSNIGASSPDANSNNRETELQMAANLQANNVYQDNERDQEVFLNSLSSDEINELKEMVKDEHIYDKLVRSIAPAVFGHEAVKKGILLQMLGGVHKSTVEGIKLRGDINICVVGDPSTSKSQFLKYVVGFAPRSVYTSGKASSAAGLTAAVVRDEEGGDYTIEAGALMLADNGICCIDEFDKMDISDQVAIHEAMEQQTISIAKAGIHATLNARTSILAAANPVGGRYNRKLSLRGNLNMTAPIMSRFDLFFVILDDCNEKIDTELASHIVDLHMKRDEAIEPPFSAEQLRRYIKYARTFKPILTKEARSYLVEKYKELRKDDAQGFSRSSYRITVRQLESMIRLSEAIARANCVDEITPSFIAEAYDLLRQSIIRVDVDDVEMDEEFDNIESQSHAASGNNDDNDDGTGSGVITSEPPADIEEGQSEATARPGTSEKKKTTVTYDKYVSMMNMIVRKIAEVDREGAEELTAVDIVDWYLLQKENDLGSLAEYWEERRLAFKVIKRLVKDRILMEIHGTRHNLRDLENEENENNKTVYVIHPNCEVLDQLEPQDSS", "T2 sequence (P38132 whole entry)": "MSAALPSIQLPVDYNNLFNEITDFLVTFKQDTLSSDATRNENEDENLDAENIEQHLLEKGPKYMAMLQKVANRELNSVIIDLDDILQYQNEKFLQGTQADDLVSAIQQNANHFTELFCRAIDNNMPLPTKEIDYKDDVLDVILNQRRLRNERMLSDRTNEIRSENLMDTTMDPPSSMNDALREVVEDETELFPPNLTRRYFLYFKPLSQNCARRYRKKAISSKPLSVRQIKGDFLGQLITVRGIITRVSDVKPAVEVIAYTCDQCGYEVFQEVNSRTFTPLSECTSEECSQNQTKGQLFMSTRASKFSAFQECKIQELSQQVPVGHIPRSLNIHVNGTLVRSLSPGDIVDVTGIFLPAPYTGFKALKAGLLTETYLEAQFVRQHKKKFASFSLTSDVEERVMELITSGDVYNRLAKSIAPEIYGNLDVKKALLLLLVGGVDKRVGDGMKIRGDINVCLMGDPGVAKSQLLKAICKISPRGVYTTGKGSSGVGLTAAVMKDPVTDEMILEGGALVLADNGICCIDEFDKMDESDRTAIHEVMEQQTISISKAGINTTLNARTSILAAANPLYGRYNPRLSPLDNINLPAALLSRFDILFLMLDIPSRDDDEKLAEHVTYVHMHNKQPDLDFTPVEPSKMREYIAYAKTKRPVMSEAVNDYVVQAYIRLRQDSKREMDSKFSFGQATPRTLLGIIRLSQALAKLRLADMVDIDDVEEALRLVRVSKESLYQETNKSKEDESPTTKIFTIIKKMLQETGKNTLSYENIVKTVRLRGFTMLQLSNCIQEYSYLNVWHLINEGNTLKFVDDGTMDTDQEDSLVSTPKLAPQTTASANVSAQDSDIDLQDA", "assay": "Steady-state ATP hydrolysis by Mcm467", "type": "biochemical", "conditions": "1 mM compound, 100 nM hexamer"}, "Mcm467 [2]": {"molecular_target": "T2, Mcm467", "assay": "Mcm467 helicase (DNA unwinding) assay", "type": "biochemical", "conditions": "DNA unwinding, 100 nM hexamer, inhibitor preincubation; value (95% CI); read-out: IC50 Mcm467"}, "[3]": {"molecular_target": "SV40 large TAg (T-antigen) (Simian virus 40, UniProt P03070)", "sequence (P03070 whole entry, looked up)": "as the sequence (P03070 whole entry) above", "assay": "biochemical", "design": "species or system SV40 (simian virus 40)", "conditions": "DNA unwinding, 100 nM hexamer, inhibitor preincubation; […]; read-out: IC50 T-antigen"}, "[4]": {"tested_on": "S. cerevisiae ∆erg6 (UPY675)", "assay": "Yeast growth inhibition, 96-well assay, ∆erg6 strain", "type": "cell-based, Saccharomyces cerevisiae", "conditions": "Saccharomyces cerevisiae, 24 h, read-out: IC50 Yeast"}, "pUC19": {"tested_on": "pUC19", "assay": "DNA intercalation assay (Topo I-relaxed plasmid)", "type": "biochemical", "conditions": "1 mM inhibitor added after plasmid relaxation (Figure 3C)", "source_text": "To examine this model, we tested our inhibitors in a standard topoisomerase assay. The rationale of this assay is that intercalating compounds will introduce supercoils into a fully relaxed plasmid. Topo I will remove these introduced supercoils, but after quenching and gel electrophoresis the intercalator will diffuse away and produce a detectable compensatory supercoiling increase."}, "Solubility in assay": {"assay": "Solubility in assay", "conditions": "helicase assay conditions"}, "Mcm2-7 [5]": {"molecular_target": "T3, Mcm2-7", "T3 construct": "made in house; host or cells: baculovirus-infected insect cells", "assay": "Mcm2-7 helicase (DNA unwinding) assay", "type": "biochemical, Saccharomyces cerevisiae", "conditions": "DNA unwinding, 100 nM hexamer, inhibitor preincubation; value (95% CI); read-out: IC50 Mcm2-7"}, "Mcm2-7 [6]": {"tested_on": "T3, Mcm2-7", "assay": "Steady-state ATP hydrolysis by Mcm2-7", "type": "biochemical, Saccharomyces cerevisiae", "conditions": "1 mM compound, 100 nM hexamer"}, "Mcm2-7 [7]": {"tested_on": "T3, Mcm2-7", "assay": "ssDNA double filter-binding assay, Mcm2-7", "design": "species or system Saccharomyces cerevisiae", "conditions": "1 mM compound, 150 nM helicase"}, "Wheat Germ Topo I": {"tested_on": "Wheat Germ Topo I", "assay": "Topo I activity inhibition assay", "conditions": "1 mM inhibitor added together with Topo I (Figure 3D)"}, "Mcm467 [8]": {"molecular_target": "T2, Mcm467", "assay": "ssDNA double filter-binding assay, Mcm467", "conditions": "1 mM compound, 150 nM helicase"}}, "data": [{"smiles": "CCn1cc(C(=O)O)c(=O)c2c(N)c(F)c(N3CCNCC3)c(F)c21", "note": "[compound 271327]", "values": [{"measurement": "effect on ATP hydrolysis of TAg", "setting": "SV40 large TAg", "value": "essentially no inhibition"}, {"measurement": "effect on ATP hydrolysis of Mcm467", "setting": "Mcm467 [1]", "value": "essentially no inhibition"}, {"measurement": "IC50", "setting": "Mcm467 [2]", "value": 460, "unit": "µM"}, {"measurement": "IC50", "setting": "[3]", "value": "> 1000", "unit": "µM"}, {"measurement": "IC50", "setting": "[4]", "value": 700, "unit": "µM"}, {"measurement": "DNA intercalation", "setting": "pUC19", "value": "little or no intercalation"}, {"measurement": "solubility", "setting": "Solubility in assay", "value": "limited solubility"}, {"measurement": "IC50", "setting": "Mcm2-7 [5]", "value": 361, "unit": "µM"}, {"measurement": "effect on ATP hydrolysis of Mcm2-7", "setting": "Mcm2-7 [6]", "value": "essentially no inhibition"}]}, {"smiles": "CC1=C(C(=O)OCc2ccccc2)C(c2ccc(-c3ccccc3)cc2)NC(=O)N1CCCCCC(=O)O", "note": "(stereo not shown) [MAL2-11b, reference compound]", "values": [{"measurement": "effect on ATP hydrolysis of TAg", "setting": "SV40 large TAg", "value": "completely inhibits"}, {"measurement": "effect on ATP hydrolysis of Mcm467", "setting": "Mcm467 [1]", "value": "completely inhibits"}, {"measurement": "IC50", "setting": "Mcm467 [2]", "value": 112, "unit": "µM"}, {"measurement": "IC50", "setting": "[3]", "value": 192, "unit": "µM"}, {"measurement": "DNA intercalation", "setting": "pUC19", "value": "little or no intercalation"}, {"measurement": "effect on ssDNA binding of Mcm2-7", "setting": "Mcm2-7 [7]", "value": "inhibit"}, {"measurement": "IC50", "setting": "Mcm2-7 [5]", "value": 96, "unit": "µM"}, {"measurement": "Topo I inhibition", "setting": "Wheat Germ Topo I", "value": "Topo I inhibitor"}, {"measurement": "effect on ssDNA binding of Mcm467", "setting": "Mcm467 [8]", "value": "inhibit"}, {"measurement": "effect on ATP hydrolysis of Mcm2-7", "setting": "Mcm2-7 [6]", "value": "completely inhibits"}]}]}
